The nature of the data set: Mitochondrial toxicity (Glu/Gal) assay. The class given is cell-based. The settings on record: for Score: mitotoxicity score, Glu/Gal assay; for Δ IC50, glu/IC50, gal: ratio IC50 glu / IC50 gal. The source says: The compounds of the invention/examples may have advantages associated with in vitro potency, kill kinetics (i.e. bactericidal effect) in vitro, PK properties, food effect, safety/toxicity (including liver toxicity, coagulation, 5-LO oxygenase), metabolic stability, Ames II negativity, MNT negativity, aqueous based solubility (and ability to formulate) and/or cardiovascular effect e.g. on animals (e.g. anesthetized guinea pig). Data that is generated/calculated may be obtained using standard methods/assays, for instance that are available in the literature or which may be performed by a supplier (e.g. Microsomal Stability Assay—Cyprotex, Mitochondrial toxicity (Glu/Gal) assay—Cyprotex, as well as literature CYP cocktail inhibition assays). GSH can be measured (reactive metabolites, glucuronidation) to observe if a dihydrodiol is observed by LCMS (fragmentation ions), which would correspond to a dihydroxylation on the core heterocycle.

Setting [1] is: galactose medium (Glu/Gal mitotoxicity assay), read-out: IC50, gal.
Setting [2] is: glucose medium (Glu/Gal mitotoxicity assay), read-out: IC50, glu.

Like-named read-outs stand apart in the source and are kept apart here.

As a reminder, the IC50 is the midpoint of a concentration-inhibition curve. Turning to `CCc1nc2ncc(C)cn2c1C(=O)NCc1ccc(C2CCN(c3nc4n(n3)CCN(S(=O)(=O)C(F)(F)F)C4)CC2)cc1` [Compound 59], the Score entry is “[x]3” and the “Δ IC50, glu/IC50, gal” value was more than 11.38. Also, the IC50 (read-out: IC50, gal) came to 17.6 µM. The IC50 (read-out: IC50, glu) was more than 200 µM.
For the compound `CCc1nc2ncc(C)cn2c1C(=O)NCc1ccc(N2CCC(c3nc4n(n3)CCN(S(=O)(=O)C(F)(F)F)C4)CC2)cc1` [Compound 60], the “Δ IC50, glu/IC50, gal” value is on record as more than 3.56. The IC50 (read-out: IC50, gal) is 56.2 µM. Further, the IC50 (read-out: IC50, glu) is more than 200 µM.
As to `CCc1nc2ncc(C)cn2c1C(=O)NCc1ccc(-c2nc3n(n2)CCN(CCC#N)C3)cc1` [Compound 61], the IC50 is more than 200 µM under setting [1] and more than 200 µM under setting [2].
On to `CCc1nc2ccc(C)cn2c1C(=O)NCc1ccc(-c2nc3n(n2)CCN(CCC#N)C3)cc1` [Compound 62], for which the IC50 is, setting by setting: under setting [1], more than 200 µM; under setting [2], more than 200 µM.
Regarding `CCc1nc2ncc(C)cn2c1C(=O)NCc1ncc(-c2nc3n(n2)CCN(S(=O)(=O)C(F)(F)F)C3)s1` [Compound 64], the IC50 is, setting by setting: under setting [1], more than 200 µM; under setting [2], more than 200 µM.
Consider `CCc1nc2n(c1C(=O)NCc1ccc(-c3nc4n(n3)CCN(S(=O)(=O)C(F)(F)F)C4)cc1)CCN(C)C2` [Compound 65], for which the IC50 is, setting by setting: under setting [1], more than 200 µM; under setting [2], more than 200 µM.
Take `CCc1nc2ncc(C)cn2c1C(=O)NCc1cccc(-c2nc3n(n2)CCN(S(=O)(=O)C(F)(F)F)C3)c1` [Compound 67]: the Score result is “[x]1” and the “Δ IC50, glu/IC50, gal” value is given as more than 1.34. Moreover, the IC50 (read-out: IC50, gal) is 149 µM. The IC50 (read-out: IC50, glu) was more than 200 µM.
Taken in the same sequence, the figures for `CCc1nc2ncc(C)cn2c1C(=O)NCc1ccc(C2CCN(c3nc4n(n3)CCN(S(=O)(=O)C(F)(F)F)C4)C2)cc1` (stereo not shown) [Compound 69] were “[x]3”, 11.37, 15.3 µM and 174 µM.
For the compound `CCc1nc2ncc(C)cn2c1C(=O)NCc1ccc(N2CCN(c3nc4n(n3)CCN(S(=O)(=O)C(F)(F)F)C4)CC2)cc1` [Compound 70], the IC50 is, setting by setting: (read-out: IC50, gal) more than 50 µM; (read-out: IC50, glu) more than 50 µM.
Consider `CCc1nc2ncc(C)cn2c1C(=O)NCc1csc(-c2nc3n(n2)CCN(S(=O)(=O)C(F)(F)F)C3)n1` [Compound 73], for which the IC50 is more than 200 µM (read-out: IC50, gal) and more than 200 µM (read-out: IC50, glu).
For the compound `CCc1nc2ncc(C)cn2c1C(=O)NCc1nc(-c2nc3n(n2)CCN(S(=O)(=O)C(F)(F)F)C3)cs1` [Compound 75], the IC50 is more than 200 µM (read-out: IC50, gal) and more than 200 µM (read-out: IC50, glu).
Turning to `CCc1nc2ncc(C)cn2c1C(=O)NCc1nnc(-c2nc3n(n2)CCN(S(=O)(=O)C(F)(F)F)C3)s1` [Compound 76], the concentration for half-maximal inhibition (IC50) is more than 200 µM (read-out: IC50, gal) and more than 200 µM (read-out: IC50, glu).
With `CCc1nc2ncc(Cl)cn2c1C(=O)NCc1cnc(-c2nc3n(n2)CCN(S(=O)(=O)C(F)(F)F)C3)c(F)c1` [Compound 77], the IC50 reads like this: (read-out: IC50, gal) more than 200 µM; (read-out: IC50, glu) more than 200 µM.
Consider `CCc1nc2cc(N)c(Cl)cn2c1C(=O)NCc1cnc(-c2nc3n(n2)CCN(S(=O)(=O)C(F)(F)F)C3)c(F)c1` [Compound 78], for which the IC50 (read-out: IC50, gal) is more than 200 µM and the IC50 (read-out: IC50, glu) is more than 200 µM.
`CCc1nc2ncc(C)cn2c1C(=O)NC(C)(C)c1ccc(-c2nc3n(n2)CCN(S(=O)(=O)C(F)(F)F)C3)cc1` [Compound 83]: the Score result is “[x]1” and the “Δ IC50, glu/IC50, gal” value was 1.12. Further, the IC50 (read-out: IC50, gal) worked out at 127 µM. Also, the IC50 (read-out: IC50, glu) worked out at 142 µM.
Take `CCc1nc2ncc(C)cn2c1C(=O)NCc1ccc(-c2cn3c(n2)CN(S(=O)(=O)C(F)(F)F)CC3)cc1` [Compound 89]: the IC50 under setting [1] is more than 200 µM and the IC50 under setting [2] was more than 200 µM.
For the compound `CCc1nc2ncc(Cl)cn2c1C(=O)NCc1ccc(-c2cn3c(n2)CN(S(=O)(=O)C(F)(F)F)CC3)cc1` [Compound 90], the IC50 is, setting by setting: under setting [1], more than 200 µM; under setting [2], more than 200 µM.

For the origin of these results see patent US20240199651A1, “ANTIBACTERIAL COMPOUNDS” (JANSSEN SCIENCES IRELAND UNLIMITED COMPANY, priority 2021, published 2024).
